# Assay results reported in patent US7605165B2, “Phenylalanine derivatives” (Ajinomoto Co., Inc., priority 2002, dated 2009).
# Columns and labels:
# [1] = biological target: T1, integrin α4β7 (Homo sapiens, UniProt P13612+P26010); assay: Assessment of VCAM-1/α4β7 binding antagonistic activity (RPMI-8866 cells binding to VCAM-1); assay type: cell-based; conditions: RPMI-8866 human B lymphoma cells binding to recombinant human VCAM-1, binding buffer with 4 mM MnCl2; read-out: integrin VCAM/α4 binding antagonistic activity (IC50) α4β7
# T1 construct: lymphoma cell strain RPMI-8866 of human B cells, known to express integrin α4β7; endogenous in cells; host or cells: RPMI-8866, human B-cell lymphoma line
# T1 sequence (P13612 34-1032): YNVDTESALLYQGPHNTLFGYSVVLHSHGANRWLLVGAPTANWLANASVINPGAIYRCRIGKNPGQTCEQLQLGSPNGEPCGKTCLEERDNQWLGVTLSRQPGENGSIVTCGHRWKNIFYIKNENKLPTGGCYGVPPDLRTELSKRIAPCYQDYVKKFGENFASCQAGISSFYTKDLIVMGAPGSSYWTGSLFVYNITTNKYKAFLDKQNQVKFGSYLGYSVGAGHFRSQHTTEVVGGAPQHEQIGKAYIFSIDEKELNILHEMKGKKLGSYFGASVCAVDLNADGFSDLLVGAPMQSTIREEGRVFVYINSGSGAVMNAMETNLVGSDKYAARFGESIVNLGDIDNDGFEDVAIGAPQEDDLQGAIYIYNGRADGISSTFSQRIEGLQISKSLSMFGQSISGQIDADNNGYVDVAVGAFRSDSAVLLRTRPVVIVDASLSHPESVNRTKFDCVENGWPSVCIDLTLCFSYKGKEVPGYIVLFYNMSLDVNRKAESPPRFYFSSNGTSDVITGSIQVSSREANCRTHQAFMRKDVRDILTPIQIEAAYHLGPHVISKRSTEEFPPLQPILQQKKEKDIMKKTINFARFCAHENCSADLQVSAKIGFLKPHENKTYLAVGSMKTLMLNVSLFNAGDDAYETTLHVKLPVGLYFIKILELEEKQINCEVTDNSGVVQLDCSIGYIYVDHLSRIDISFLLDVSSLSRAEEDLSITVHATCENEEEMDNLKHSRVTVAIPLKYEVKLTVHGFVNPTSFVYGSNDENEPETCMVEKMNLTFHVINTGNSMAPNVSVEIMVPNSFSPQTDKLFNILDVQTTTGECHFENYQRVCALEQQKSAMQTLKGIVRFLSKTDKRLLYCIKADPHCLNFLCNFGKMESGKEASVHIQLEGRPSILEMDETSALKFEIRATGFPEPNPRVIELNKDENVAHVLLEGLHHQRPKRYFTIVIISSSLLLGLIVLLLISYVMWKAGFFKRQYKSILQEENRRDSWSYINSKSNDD
# T1 sequence (P26010 20-798): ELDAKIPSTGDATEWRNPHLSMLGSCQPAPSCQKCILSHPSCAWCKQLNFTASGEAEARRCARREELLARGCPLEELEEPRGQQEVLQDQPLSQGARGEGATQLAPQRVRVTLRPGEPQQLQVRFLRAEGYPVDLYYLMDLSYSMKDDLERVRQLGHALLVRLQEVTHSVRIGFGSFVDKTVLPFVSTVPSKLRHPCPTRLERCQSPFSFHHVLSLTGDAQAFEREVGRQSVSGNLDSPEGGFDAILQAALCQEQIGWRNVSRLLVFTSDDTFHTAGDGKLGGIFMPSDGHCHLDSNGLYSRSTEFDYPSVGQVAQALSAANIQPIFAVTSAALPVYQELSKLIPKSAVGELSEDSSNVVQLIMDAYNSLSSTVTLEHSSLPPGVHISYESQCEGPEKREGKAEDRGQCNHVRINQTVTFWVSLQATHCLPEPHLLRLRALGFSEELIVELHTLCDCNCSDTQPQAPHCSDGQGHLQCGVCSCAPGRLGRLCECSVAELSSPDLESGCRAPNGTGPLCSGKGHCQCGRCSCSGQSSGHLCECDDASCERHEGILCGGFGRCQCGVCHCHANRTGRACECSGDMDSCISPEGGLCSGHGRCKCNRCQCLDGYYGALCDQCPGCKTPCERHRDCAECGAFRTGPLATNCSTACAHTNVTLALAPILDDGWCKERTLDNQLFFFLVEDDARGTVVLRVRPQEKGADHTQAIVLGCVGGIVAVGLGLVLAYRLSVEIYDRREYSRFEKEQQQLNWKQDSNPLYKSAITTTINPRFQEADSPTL
# Description: The capacity of a test substance antagonistic to the binding of lymphoma cell strain RPMI-8866 of human B cells, known to express integrin α4β7, to VCAM-1 was determined.
# (§1) 100 μl/well of a solution (500 ng/ml) of recombinant human VCAM-1 (R & D systems) solution diluted with buffer A (0.1 M NaHCO3, pH 9.6) was added to a micro titer plate having 96 wells (Nunc Maxisorp). After the incubation at 4° C. overnight, unbound VCAM-1 was removed by washing once with PBS. After completion of the washing, a buffer (buffer B) obtained by diluting Block Ace (Dainippon Pharmaceutical Co., Ltd.) with PBS to 1/4 concentration was added in an amount of 150 μl/well. After the incubation at room temperature for 1 hour, buffer B was removed and the plate was washed with PBS once.
# RPMI-8866 cells were washed with DMEM twice and incubated in Dulbecco modified Eagle medium containing 10 μg/ml of Calcein-AM (Wako Pure Chemical Industries, Ltd.) (SIGMA, hereinafter referred to as “DMEM”) in dark place at 37° C. for 30 minutes to label with fluorescence. The cells were again suspended in a binding buffer (20 mM HEPES, DMEM containing 0.1% BSA) containing 4 mM of MnCl2.
# (§2) 50 μl of a test substance of various concentrations obtained by the dilution with the binding buffer was added to the plate. Immediately thereafter, 50 μl (final volume: 100 μl/well) of the fluorescent RPMI-8866 cells (4×10^6 cells/ml) were added thereto, and they were incubated in dark place at room temperature for 30 minutes. After the shaking on a plate shaker (IKA MTS-4) at 800 rpm for 30 seconds, the solution was immediately removed to remove the unbound cells. The fluorescence quantity of the bound cells remaining in the wells was determined with a fluorescent plate reader (Wallac 1420 ARVO multi-label counter) (filter excitation wave length: 485 nm, emission wave length: 535 nm). The fluorescent strength thus obtained is proportional to the number of RPMI-8866 cells bound to VCAM-1 and remaining on the plate. The binding rate of each test material in various concentrations was determined while the fluorescent strength of the test material-free well was determined to be 100%.
# [2] = biological target: T2, integrin α4β1 (Homo sapiens, UniProt P05556+P13612); assay: Assessment of VCAM-1/α4β1 binding antagonist activity (Jurkat cells binding to VCAM-1); assay type: cell-based; conditions: Jurkat human T cells binding to recombinant human VCAM-1; read-out: integrin VCAM/α4 binding antagonistic activity (IC50) α4β1
# T2 construct: cell strain Jurkat (ATCC TIB-152) of human T cells, known to express integrin α4β1; endogenous in cells; host or cells: Jurkat (ATCC TIB-152), human T cells
# T2 sequence (P05556 21-798, one chain of several): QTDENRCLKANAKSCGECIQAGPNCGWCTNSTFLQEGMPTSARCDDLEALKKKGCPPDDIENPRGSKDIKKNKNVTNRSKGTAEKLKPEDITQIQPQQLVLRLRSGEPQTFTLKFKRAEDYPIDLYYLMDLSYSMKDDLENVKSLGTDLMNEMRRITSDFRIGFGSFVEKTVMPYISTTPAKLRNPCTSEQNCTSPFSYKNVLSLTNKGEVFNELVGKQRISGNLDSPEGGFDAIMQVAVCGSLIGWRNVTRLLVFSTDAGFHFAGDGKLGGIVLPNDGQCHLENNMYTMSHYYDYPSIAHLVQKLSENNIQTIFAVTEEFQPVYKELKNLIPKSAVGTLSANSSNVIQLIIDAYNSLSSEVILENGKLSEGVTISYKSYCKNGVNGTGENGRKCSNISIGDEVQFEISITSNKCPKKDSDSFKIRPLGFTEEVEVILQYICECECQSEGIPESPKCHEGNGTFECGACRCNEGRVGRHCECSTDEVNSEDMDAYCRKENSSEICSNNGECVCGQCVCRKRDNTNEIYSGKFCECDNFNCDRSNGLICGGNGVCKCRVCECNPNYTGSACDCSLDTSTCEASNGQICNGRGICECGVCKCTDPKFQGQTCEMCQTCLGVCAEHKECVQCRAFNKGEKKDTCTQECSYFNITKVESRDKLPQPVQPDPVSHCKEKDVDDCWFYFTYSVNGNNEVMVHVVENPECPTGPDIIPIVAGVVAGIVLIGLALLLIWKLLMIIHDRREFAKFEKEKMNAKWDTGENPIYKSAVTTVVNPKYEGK
# Description: The capacity of a test substance antagonistic to the binding of cell strain Jurkat (ATCC TIB-152) of human T cells, known to express integrin α4β1, to VCAM-1 was determined.
# as §1
# Jurkat cells were washed with Dulbecco modified Eagle medium (SIGMA, hereinafter referred to as “DMEM”) twice and then incubated in DMEM containing 10 μg/ml of Calcein-AM (Wako Pure Chemical Industries, Ltd.) at 37° C. in dark place for 30 minutes to label with fluorescence. The cells were again suspended in a binding buffer (20 mM HEPES, DMEM containing 0.1% BSA).
# as §2, with “Jurkat” for “RPMI-8866”
Compound,IC50 [1],IC50 [2]
Cc1ccc(Cn2c(=O)n(-c3ccc(C[C@H](NC(=O)c4c(Cl)cccc4Cl)C(=O)O)cc3)c(=O)c3ccccc32)cc1 [compound 118],16 nM,385 nM
O=C(N[C@@H](Cc1ccc(-n2c(=O)c3ccccc3n(Cc3ccccc3Cl)c2=O)cc1)C(=O)O)c1c(Cl)cccc1Cl [compound 119],21 nM,440 nM
Cc1ccccc1Cn1c(=O)n(-c2ccc(C[C@H](NC(=O)c3c(Cl)cccc3Cl)C(=O)O)cc2)c(=O)c2ccccc21 [compound 120],24 nM,500 nM
O=C(N[C@@H](Cc1ccc(-n2c(=O)c3ccccc3n(Cc3c(F)cccc3Cl)c2=O)cc1)C(=O)O)c1c(Cl)cccc1Cl [compound 121],14 nM,109 nM
O=C(N[C@@H](Cc1ccc(-n2c(=O)c3ccccc3n(Cc3ccccc3)c2=O)cc1)C(=O)O)c1c(Cl)cccc1Cl [compound 122],0.6 nM,310 nM
CC(C)CNc1nc2ccccc2c(=O)n1-c1ccc(C[C@H](NC(=O)c2c(Cl)cccc2Cl)C(=O)O)cc1 [compound 126],70 nM,1580 nM
CCN(C)c1nc2ccccc2c(=O)n1-c1ccc(C[C@H](NC(=O)c2c(Cl)cccc2Cl)C(=O)O)cc1 [compound 129],76.4 nM,2020 nM
Cn1c(=O)n(-c2ccc(C[C@H](NC(=O)c3c(Cl)cccc3C(F)(F)F)C(=O)O)cc2)c(=O)c2ccccc21 [compound 164],7.1 nM,120 nM
Cn1c(=O)n(-c2ccc(C[C@H](NC(=O)c3c(Cl)cccc3Br)C(=O)O)cc2)c(=O)c2ccccc21 [compound 165],0.6 nM,11 nM
Cn1c(=O)n(-c2ccc(C[C@H](NC(=O)c3c(Cl)cncc3Cl)C(=O)O)cc2)c(=O)c2ccccc21 [compound 169],0.5 nM,6 nM
